In patent US20240058387A1, “CULTURE MEDIUM COMPOSITION FOR AMPLIFYING AND MAINTAINING SELF-RENEWAL CAPACITY AND DIFFERENTIATION POTENTIAL OF HSCS AND APPLICATION THEREOF” (EDIGENE (GUANGZHOU) INC., priority 2020, published 2024):

Tested on: umbilical cord blood-derived CD34+ cells
Test: In vitro colony-forming unit (CFU) assay
Assay type: cell-based, human
Details: FIG. 6, clones counted 14 days after seeding
Description: In this example, the colony-forming unit (CFU) was used to detect the in vitro function of cord blood-derived hematopoietic stem cells induced by a small molecule inhibitor for qualitative and quantitative detection to verify their in vitro differentiation potential.
First, 100 mL of medium MethoCult™ H4034 Optimum (Stem Cell, Cat. No.: 04034) were aliquoted, then thawing at 2-8° C. overnight; shaking vigorously for 1-2 minutes and letting it stand for 10 minutes until the bubbles rised to the liquid level. After tightly fitting the 50 mL syringe needle to the 5 mL disposable syringe, the medium is aspirated to 1 mL, pushing out the syringe completely to exhaust the gas in the syringe, and re-absorbing 3 mL into each 15 mL centrifuge tube (Corning, Cat. No. 430791); storing at 2-8° C. for 1 month, and at −20° C. for long-term storage.
3 mL of medium Meth® Cult′ H4034 Optimum was prepared and thawed overnight at room temperature (15-25° C.) or 2-8° C. […]
Colonies were observed on the 7th and 14th days of culture, and colonies were counted with a STEMgrid™-6 counting grid (stem cell, Cat. number: 27000) after 14 days of culture. […]

`COc1cc2ncc(-c3ccccc3)nc2cc1OC` [AG1296] was tested, and the “number of GEMM clones (CFU-GEMM)” value (1 μM, 8 days treatment) was “significantly better than the other groups” and the “total number of clones” value (different concentrations of AG1296, 8 days treatment) was “little difference between the groups”.
